Test results as given in BindingDB's records for doi:10.1021/jm00077a017 (University of Rhode Island, 1994).

Columns and labels:
[1] = target: Adenosine deaminase 2 (CECR1) (Homo sapiens) (UniProt Q9NZK5); experiment: Tested for inhibition against human plasma adenosine deaminase (ADA2)
[2] = target: Adenosine deaminase 2 (CECR1) (Homo sapiens) (UniProt Q9NZK5); experiment: Tested for binding constant against adenosine deaminase (ADA2) in human plasma

Chain of Adenosine deaminase 2 (CECR1) (Homo sapiens) (Q9NZK5 whole entry, looked up): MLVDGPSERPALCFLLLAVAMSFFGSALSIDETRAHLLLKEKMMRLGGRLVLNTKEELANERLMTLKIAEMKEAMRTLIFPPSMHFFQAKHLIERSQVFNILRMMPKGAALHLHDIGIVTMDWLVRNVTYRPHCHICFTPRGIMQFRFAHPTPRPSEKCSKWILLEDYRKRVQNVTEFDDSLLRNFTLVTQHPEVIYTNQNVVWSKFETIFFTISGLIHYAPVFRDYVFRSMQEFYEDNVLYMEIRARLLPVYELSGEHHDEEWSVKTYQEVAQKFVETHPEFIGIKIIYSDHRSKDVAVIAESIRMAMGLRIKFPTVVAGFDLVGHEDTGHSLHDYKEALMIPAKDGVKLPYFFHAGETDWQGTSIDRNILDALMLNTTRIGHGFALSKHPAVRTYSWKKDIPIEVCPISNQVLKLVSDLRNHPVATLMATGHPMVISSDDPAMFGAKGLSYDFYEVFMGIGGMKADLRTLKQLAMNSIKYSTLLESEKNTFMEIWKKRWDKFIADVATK

| Ki [1] [µM] | Ki [2] [µM] | Compound |
| --- | --- | --- |
| 1410 |  | Nc1nncc2c1nnn2C1O[C@H](CO)[C@@H](O)[C@H]1O (some centres not stated) |
|  | 2180 | Nc1ncnc2c1ncn2[C@@H]1O[C@H](CO)[C@@H](O)[C@H]1O [[U-14C]adenosine] |
